How the values were obtained:
Format in all cases: cell-based
SW480 colon cancer cells = test: Cell viability assay (CellTiter-Blue) in SW480 cells; details: Homo sapiens, 96 h, four days, CellTiter-Blue, 10 μM to 0.0045 μM
In short: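 Resazurin reduction (Ex 560/Em 590 nm, ~3 h reagent incubation) served as the viability read-out after SW480 cells were treated for four days at 37 °C. Doses ran from 10 μM down to 0.0045 μM in eight 1:3 steps. Curves fitted non-linearly for EC50, else % inhibition at 10 μM reported.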

[1] = system: primary human fibroblasts derived from IPF patients (LL29 cells) treated with TGF-β1; test: Inhibition of the fibrotic process: αSMA staining in TGF-β1-treated LL29 fibroblasts; details: Fibroblast; for EC50: 96 h, LL29 fibroblasts treated with TGF-β1 (20 ng/mL), 4 days, Table 4; for inhibition at 10 µM: LL29 fibroblasts treated with TGF-β1, Table 4, read-out: percent inhibition at 10 μM (given in parentheses for EC50 >10 μM)
In short: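 EC50 from triplicate-well dose-response fits of % αSMA-positive cells, normalized to TGF-β1-stimulated DMSO controls, with SYTOX-positive dead cells excluded. LL29 IPF fibroblasts received compound at 10 μM–1.87 nM (0.1% DMSO) plus 20 ng/mL TGF-β1 for 4 days in 1% FBS medium; above 10 μM, % inhibition at 10 μM reported.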

[2] = system: Wnt activity (Sp5-Luc reporter, Wnt-responsive promoter) in SW480 colon carcinoma cells; test: Wnt activity screening assay: Sp5-Luc reporter gene assay in SW480 cells; details: Homo sapiens, overnight incubation, 10-point curve starting from 10 μM
In short: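 Luminescence (BrightGlo) was normalised to DMSO-only wells and fitted with a four-parameter variable-slope model for EC50; beyond 10 μM, % inhibition at 10 μM is given. Stable Sp5-Luc SW480 reporter cells, 4,000/well in 1% FBS, were exposed overnight at 37 °C to compounds, top 10 μM, 1:3 dilutions, 0.1% DMSO.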

| SMILES | EC50 (SW480 colon cancer cells) [nM] | EC50 [1] [nM] | EC50 [2] [nM] | inhibition at 10 µM [1] [%] |
| --- | --- | --- | --- | --- |
| CN(C)CCNc1cc(F)cc(-c2cccc3[nH]c(-c4n[nH]c5ccc(-c6ccccn6)nc45)nc23)c1 [Compound 476, N^1-(3-Fluoro-5-(2-(5-(pyridin-2-yl)-1H-pyrazolo[4,3-b]pyridin-3-yl)-1H-benzo[d]imidazol-4-yl)phenyl)-N^2,N^2-dimethylethane-1,2diamine] | 1440 | 1080 | 1490 | – |
| Cc1ccncc1-c1ccc2[nH]nc(-c3nc4c(-c5cc(F)cc(CNS(C)(=O)=O)c5)cccc4[nH]3)c2n1 [Compound 481, N-(3-Fluoro-5-(2-(5-(4-methylpyridin-3-yl)-1H-pyrazolo[4,3-b]pyridin-3-yl)-1H-benzo[d]imidazol-4-yl)benzyl)methanesulfonamide] | 5590 | 2110 | 1340 | – |
| CCCC(=O)Nc1cncc(-c2ccc3[nH]nc(-c4nc5c(-c6cc(F)cc(CNS(C)(=O)=O)c6)cccc5[nH]4)c3n2)c1 [Compound 493, N-(5-(3-(4-(3-Fluoro-5-(methylsulfonamidomethyl)phenyl)-1H-benzo[d]imidazol-2-yl)-1H-pyrazolo[4,3-b]pyridin-5-yl)pyridin-3-yl)butyramide] | 3930 | 2620 | 3220 | – |
| CS(=O)(=O)NCc1cc(F)cc(-c2cccc3[nH]c(-c4n[nH]c5ccc(-c6cncc(CNCc7ccccc7)c6)nc45)nc23)c1 [Compound 500, N-(3-(2-(5-(5-((Benzylamino)methyl)pyridin-3-yl)-1H-pyrazolo[4,3-b]pyridin-3-yl)-1H-benzo[d]imidazol-4-yl)-5-fluorobenzyl)methanesulfonamide] | 3100 | 2210 | 2340 | – |
| CS(=O)(=O)NCc1cc(F)cc(-c2cccc3[nH]c(-c4n[nH]c5ccc(-c6cncnc6)nc45)nc23)c1 [Compound 503, N-(3-Fluoro-5-(2-(5-(pyrimidin-5-yl)-1H-pyrazolo[4,3-b]pyridin-3-yl)-1H-benzo[d]imidazol-4-yl)benzyl)methanesulfonamide] | 8140 | 5000 | 2890 | – |
| Fc1cccc(-c2cccc3[nH]c(-c4n[nH]c5ccc(C6CCNCC6)nc45)nc23)c1 [Compound 505, 3-(4-(3-Fluorophenyl)-1H-benzo[d]imidazol-2-yl)-5-(piperidin-4-yl)-1H-pyrazolo[4,3-b]pyridine] | 1460 | 1700 | 3200 | – |
| Cn1cc(-c2ccc3[nH]nc(-c4nc5c(-c6cccc(F)c6)cccc5[nH]4)c3n2)cn1 [Compound 508, 3-(4-(3-Fluorophenyl)-1H-benzo[d]imidazol-2-yl)-5-(1-methyl-1H-pyrazol-4-yl)-1H-pyrazolo[4,3-b]pyridine] | 1120 | 1110 | 518 | – |
| Cc1ncc(-c2ccc3[nH]nc(-c4nc5c(-c6cccc(F)c6)cccc5[nH]4)c3n2)n1C [Compound 509, 5-(1,2-Dimethyl-1H-imidazol-5-yl)-3-(4-(3-fluorophenyl)-1H-benzo[d]imidazol-2-yl)-1H-pyrazolo[4,3-b]pyridine] | 414 | 175 | 160 | – |
| NC1CN(c2cncc(-c3ccc4[nH]nc(-c5nc6c(-c7cccc(F)c7)cccc6[nH]5)c4n3)n2)C1 [Compound 510, 1-(6-(3-(4-(3-Fluorophenyl)-1H-benzo[d]imidazol-2-yl)-1H-pyrazolo[4,3-b]pyridin-5-yl)pyrazin-2-yl)azetidin-3-amine] | 952 | 4320 | 3240 | – |
| Fc1cccc(-c2cccc3[nH]c(-c4n[nH]c5ccc(-c6cncc(OC7CCNCC7)c6)nc45)nc23)c1 [Compound 512, 3-(4-(3-Fluorophenyl)-1H-benzo[d]imidazol-2-yl)-5-(5-(piperidin-4-yloxy)pyridin-3-yl)-1H-pyrazolo[4,3-b]pyridine] | 2280 | 1540 | 2140 | – |
| Fc1cccc(-c2cccc3[nH]c(-c4n[nH]c5ccc(-c6cncc(OCCN7CCCC7)c6)nc45)nc23)c1 [Compound 514, 3-(4-(3-Fluorophenyl)-1H-benzo[d]imidazol-2-yl)-5-(5-(2-(pyrrolidin-1-yl)ethoxy)pyridin-3-yl)-1H-pyrazolo[4,3-b]pyridine] | 1120 | 1060 | 1170 | – |
| CN(C)CCOc1cncc(-c2ccc3[nH]nc(-c4nc5c(-c6cccc(F)c6)cccc5[nH]4)c3n2)c1 [Compound 515, 2-((5-(3-(4-(3-Fluorophenyl)-1H-benzo[d]imidazol-2-yl)-1H-pyrazolo[4,3-b]pyridin-5-yl)pyridin-3-yl)oxy)-N,N-dimethylethan-1-amine] | 1380 | 2540 | 4670 | – |
| COc1cncc(-c2ccc3[nH]nc(-c4nc5c(-c6cccc(F)c6)cccc5[nH]4)c3n2)c1 [Compound 516, 3-(4-(3-Fluorophenyl)-1H-benzo[d]imidazol-2-yl)-5-(5-methoxypyridin-3-yl)-1H-pyrazolo[4,3-b]pyridine] | 1160 | > 10000 | 923 | 0 |
| Oc1cncc(-c2ccc3[nH]nc(-c4nc5c(-c6cccc(F)c6)cccc5[nH]4)c3n2)c1 [Compound 517, 5-(3-(4-(3-Fluorophenyl)-1H-benzo[d]imidazol-2-yl)-1H-pyrazolo[4,3-b]pyridin-5-yl)pyridin-3-ol] | 4540 | 1540 | 6550 | – |
| c1cncc(-c2cccc3[nH]c(-c4n[nH]c5ccc(-c6cncc(OC7CCCCC7)c6)nc45)nc23)c1 [Compound 559, 5-(5-(Cyclohexyloxy)pyridin-3-yl)-3-(4-(pyridin-3-yl)-1H-benzo[d]imidazol-2-yl)-1H-pyrazolo[4,3-b]pyridine] | 3310 | 2620 | 3140 | – |
| Oc1cncc(-c2ccc3[nH]nc(-c4nc5c(-c6cccnc6)cccc5[nH]4)c3n2)c1 [Compound 565, 5-(3-(4-(Pyridin-3-yl)-1H-benzo[d]imidazol-2-yl)-1H-pyrazolo[4,3-b]pyridin-5-yl)pyridin-3-ol] | 1140 | 1730 | 1450 | – |
| c1cc(N2CCCCC2)c2nc(-c3n[nH]c4ccc(-c5cncc(OCCN6CCCC6)c5)nc34)[nH]c2c1 [Compound 610, 3-(4-(Piperidin-1-yl)-1H-benzo[d]imidazol-2-yl)-5-(5-(2-(pyrrolidin-1-yl)ethoxy)pyridin-3-yl)-1H-pyrazolo[4,3-b]pyridine] | 2690 | 1970 | 3050 | – |
| COc1cncc(-c2ccc3[nH]nc(-c4nc5c(N6CCCCC6)cccc5[nH]4)c3n2)c1 [Compound 612, 5-(5-Methoxypyridin-3-yl)-3-(4-(piperidin-1-yl)-1H-benzo[d]imidazol-2-yl)-1H-pyrazolo[4,3-b]pyridine] | 4050 | > 10000 | 3770 | 26.9 |
| Oc1cncc(-c2ccc3[nH]nc(-c4nc5c(N6CCCCC6)cccc5[nH]4)c3n2)c1 [Compound 613, 5-(3-(4-(Piperidin-1-yl)-1H-benzo[d]imidazol-2-yl)-1H-pyrazolo[4,3-b]pyridin-5-yl)pyridin-3-ol] | 2710 | 3320 | 1550 | – |
| CN1CCN(c2cccc3[nH]c(-c4n[nH]c5ccc(-c6cncc(OC7CCCCC7)c6)nc45)nc23)CC1 [Compound 639, 5-(5-(Cyclohexyloxy)pyridin-3-yl)-3-(4-(4-methylpiperazin-1-yl)-1H-benzo [d]imidazol-2-yl)-1H-pyrazolo[4,3-b]pyridine] | 933 | 1360 | 1030 | – |
| CN1CCN(c2cccc3[nH]c(-c4n[nH]c5ccc(-c6cncc(OCc7ccccc7)c6)nc45)nc23)CC1 [Compound 646, 5-(5-(Benzyloxy)pyridin-3-yl)-3-(4-(4-methylpiperazin-1-yl)-1H-benzo[d]imidazol-2-yl)-1H-pyrazolo[4,3-b]pyridine] | 1040 | 1460 | 1060 | – |
